{
  "source": "patent US20090011410A1",
  "about": "“METHOD FOR TAILORING ADMINISTRATION OF DRUGS BY QUANTITATION OF MRNA” (priority 2004, published 2009)",
  "format_in_all_cases": "cell-based, human",
  "key": {"PUMA mRNA [1]": {"system": "PUMA mRNA", "experiment": "drug-induced PUMA mRNA expression in whole blood of leukemia and lymphoma patients", "conditions": "2 hours at 37° C.; for PUMA response: NHL patient, drug concentrations (FIG. 8C)"}, "p21 mRNA [2]": {"system": "p21 mRNA", "experiment": "drug-induced p21 mRNA expression in whole blood of leukemia and lymphoma patients"}, "BAX mRNA": {"system": "BAX mRNA", "experiment": "drug-induced BAX mRNA expression in whole blood of leukemia and lymphoma patients", "conditions": "drug concentrations (FIG. 3)", "experimental": "The mRNA and cDNA were prepared from whole blood. In brief, home-made 96-well filterplates were placed over collection plates, and 150 μl 5 mM Tris, pH 7.4, was applied. Following centrifugation at 120×g for 1 min at 4° C., 50 μl of blood samples were applied to each well and immediately centrifuged at 120×g for 2 min at 4° C., followed by washing of each well with 300 μl PBS once with centrifugation at 2000×g for 5 min at 4° C. Then, 60 μl stock lysis buffer, containing for example 0.5% N-Lauroylsarcosine, 4×SSC, 10 mM Tris HCl, pH 7.4, 1 mM EDTA, 0.1% IGEPAL CA-630, and 1.791 M guanidine thiocyanate, supplemented with 1% 2-mercaptoethanol (Bio Rad, Hercules, Calif., USA), 0.5 mg/ml proteinase K (Pierce, Rockford, Ill., USA), 0.1 mg/ml salmon sperm DNA (5 Prime Eppendorf/Brinkmann, Westbury, N.Y., USA), 0.1 mg/ml E. coli tRNA (Sigma), a cocktail of 10 mM each of the specific reverse primers shown in Table 1, and standard RNA34 oligonucleotides, were applied to the filterplates, followed by incubation at 37° C. for 10 min. The filterplates were then placed over oligo(dT)-immobilized microplates (GenePlate, RNAture), and centrifuged at 2000×g for 5 min at 4° C. Following overnight storage at 4° C., the microplates were washed with 100 μl plain lysis buffer 3 times, followed by 150 μl of wash buffer (0.5 M NaCl, 10 mM Tris, pH 7.4, 1 mM EDTA) 3 times at 4° C. The cDNA was directly synthesized in each well by adding 30 μl buffer containing 1× RT-butter, 1.25 mM each of dNTP, 4 units rRNasin, and 80 units of MMLV reverse transcriptase (Promega) (without primers), and incubation at 37° C. for 2 hours. The specific primer-primed cDNA existed in solution, and oligo(dT)-primed cDNA stayed immobilized in the microplate. For TaqMan PCR (FIGS. 1, 3, 4), the resultant 4 μl cDNA solution was directly transferred to 384-well PCR plates, to which 5 μl of TaqMan universal master mix (ABI) and 1 μl oligonucleotide cocktail (15 μM each of forward and reverse primer, and 3-6 μM TaqMan probe) were applied, and PCR was conducted in PRISM 7900HT (ABI), with one cycle of 95° C. for 10 min followed by 45 cycles of 95° C. for 30 sec, 55° C. for 30 sec, and 60° C. for 1 min. […] The Ct was determined by analytical software (SDS, ABI)."}, "PUMA mRNA [3]": {"system": "PUMA mRNA", "experiment": "drug-induced PUMA mRNA expression in whole blood of healthy adults", "conditions": "10 or 100 μM taxol, 2 hours at 37° C., all individuals (FIG. 13)", "method": "(§1) In 8-well strip microtubes, 1.4 μl of 50× concentrations of drugs or controls (phosphate buffered saline (PBS) or DMSO) were added, and stored at −20° C. until use. […] Seventy μl of fresh heparinized whole blood was added into each well in triplicate, and incubated at 37° C. for 2-8 hours with the cap closed. For radiation treatment, blood was stimulated at designated doses using cesium-137. After each treatment, 50 μl of whole blood was transferred to filterplates as described below.\n(§2) The mRNA and cDNA were prepared from whole blood. In brief, home-made 96-well filterplates were placed over collection plates, and 150 μl 5 mM Tris, pH 7.4, was applied. Following centrifugation at 120×g for 1 min at 4° C., 50 μl of blood samples were applied to each well and immediately centrifuged at 120×g for 2 min at 4° C., followed by washing of each well with 300 μl PBS once with centrifugation at 2000×g for 5 min at 4° C. Then, 60 μl stock lysis buffer, containing for example 0.5% N-Lauroylsarcosine, 4×SSC, 10 mM Tris HCl, pH 7.4, 1 mM EDTA, 0.1% IGEPAL CA-630, and 1.791 M guanidine thiocyanate, supplemented with 1% 2-mercaptoethanol (Bio Rad, Hercules, Calif., USA), 0.5 mg/ml proteinase K (Pierce, Rockford, Ill., USA), 0.1 mg/ml salmon sperm DNA (5 Prime Eppendorf/Brinkmann, Westbury, N.Y., USA), 0.1 mg/ml E. coli tRNA (Sigma), a cocktail of 10 mM each of the specific reverse primers shown in Table 1, and standard RNA34 oligonucleotides, were applied to the filterplates, followed by incubation at 37° C. for 10 min. The filterplates were then placed over oligo(dT)-immobilized microplates (GenePlate, RNAture), and centrifuged at 2000×g for 5 min at 4° C. Following overnight storage at 4° C., the microplates were washed with 100 μl plain lysis buffer 3 times, followed by 150 μl of wash buffer (0.5 M NaCl, 10 mM Tris, pH 7.4, 1 mM EDTA) 3 times at 4° C. The cDNA was directly synthesized in each well by adding 30 μl buffer containing 1×RT-buffer, 1.25 mM each of dNTP, 4 units rRNasin, and 80 units of MMLV reverse transcriptase (Promega) (without primers), and incubation at 37° C. for 2 hours. The specific primer-primed cDNA existed in solution, and oligo(dT)-primed cDNA stayed immobilized in the microplate. For TaqMan PCR (FIGS. 1, 3, 4), the resultant 4 μl cDNA solution was directly transferred to 384-well PCR plates, to which 5 μl of TaqMan universal master mix (ABI) and 1 μl oligonucleotide cocktail (15 μM each of forward and reverse primer, and 3-6 μM TaqMan probe) were applied, and PCR was conducted in PRISM 7900HT (ABI), with one cycle of 95° C. for 10 min followed by 45 cycles of 95° C. for 30 sec, 55° C. for 30 sec, and 60° C. for 1 min. For SYBR Green PCR (see FIG. 6), cDNA was diluted 3-4 fold in water, and 4 μl cDNA solution was directly transferred to 384-well PCR plates, to which 5 μl of a master mix (BioRad, Hercules, Calif.) and 1 μl of oligonucleotide cocktail (15 μM each of forward and reverse primer) were applied, and PCR was conducted in PRISM 7900HT (ABI), with one cycle of 95° C. for 10 min followed by 45 cycles of 95° C. for 30 sec and 60° C. for 1 min. Each gene was amplified in separate wells. The Ct was determined by analytical software (SDS, ABI). Although 1×RT buffer was used as a negative control, none of the primer pairs produced non-specific primer-dimers under these experimental conditions. For PUMA in FIG. 8, immobilized cDNA on the oligo(dT)-immobilized microplates was directly amplified in an iCycler (BioRad).\nQuantitation of various mRNAs was conducted using the following method. Triplicate aliquots of 50 μl each of heparinized whole blood was applied to 96-well filterplates to trap leukocytes. The filterplates were placed over collection plates, and 150 μl 5 mM Tris, pH 7.4, was applied. […]"}, "p21 mRNA [4]": {"system": "p21 mRNA", "experiment": "drug-induced p21 mRNA expression in whole blood of healthy adults", "conditions": "10 or 100 μM taxol, 2 hours at 37° C., all individuals (FIG. 13)", "from_the_text": "Blood was obtained from healthy adults and from two leukemic non-Hodgkin's malignant lymphoma patients. U937, KG-1, and Jurkat cells were obtained from American Type Culture Collection (ATCC, Manassas, Va.), and maintained in RPMI 1640 supplemented with 10% fetal calf serum. Of these, U937 cells are a human histiocytic lymphoma cell line, KG-1 cells are a human bone marrow myelogenous leukemia cell line, and Jurkat cells are a human T-cell lymphoblast-like, leukemia derived cell line. […] For human experiments, blood aliquots were stimulated with various anti-cancer drugs at 37° C. for 2 hours, then both p21 and BAX mRNA were measured. The anti-cancer drugs used in this study were clinical drugs, and the concentration of each drug was adjusted to typical blood levels 3-6 hours after intravenous administration.\nas §2, with “1× RT-butter,” for “1×RT-buffer,”, “ABI).” for “ABI). Although 1×RT buffer was used as a negative control, none of the primer pairs produced non-specific primer-dimers under these experimental conditions. For PUMA in FIG. 8, immobilized cDNA on the oligo(dT)-immobilized microplates was directly amplified in an iCycler (BioRad).”\nas §1, with “cesium-137.” for “cesium-137. After each treatment, 50 μl of whole blood was transferred to filterplates as described below.”"}, "[5]": {"conditions": "AML patient, drug concentrations of b94 (FIG. 8B)"}, "[6]": {"conditions": "leukemic lymphoma patient 2, 2 hours at 37° C., drug concentrations (FIG. 3)"}, "[7]": {"conditions": "leukemic lymphoma patient 1, 2 hours at 37° C."}, "[8]": {"conditions": "leukemic lymphoma patient 1, 2 hours at 37° C., drug concentrations (FIG. 3)"}, "[9]": {"conditions": "CLL patient, drug concentrations of b94 (FIG. 8A)"}},
  "data": [
    {"smiles": "Nc1nc(F)nc2c1ncn2[C@@H]1O[C@H](CO)[C@@H](O)[C@@H]1O", "note": "[Fludara, fludarabine]", "values": [
      {"measurement": "PUMA induction", "setting": "PUMA mRNA [1]; [5]", "result": "huge induction"},
      {"measurement": "p21 mRNA induction", "setting": "p21 mRNA [2]; [6]", "result": "significant p21 mRNA induction"}
    ]},
    {"smiles": "O=P1(N(CCCl)CCCl)NCCCO1", "note": "(stereo not shown) [Endoxan, cyclophosphamide]", "values": [
      {"measurement": "p21 mRNA induction", "setting": "p21 mRNA [2]", "result": "induced"}
    ]},
    {"smiles": "[NH2][Pt]1([NH2])[O]C(=O)C2(CCC2)C(=O)[O]1", "note": "[Paraplatin, carboplatin]", "values": [
      {"measurement": "BAX mRNA induction", "setting": "BAX mRNA; [7]", "result": "significant induction"},
      {"measurement": "p21 mRNA induction", "setting": "p21 mRNA [2]; [8]", "result": "significant induction"}
    ]},
    {"smiles": "O=C1c2c(O)ccc(O)c2C(=O)c2c(NCCNCCO)ccc(NCCNCCO)c21", "note": "[MIT, mitoxantrone]", "values": [
      {"measurement": "BAX mRNA induction", "setting": "BAX mRNA; leukemic lymphoma patient 2, 2 hours at 37° C.", "result": "BAX mRNA induction"},
      {"measurement": "PUMA induction", "setting": "PUMA mRNA [1]; [5]", "result": "huge induction"},
      {"measurement": "PUMA induction", "setting": "PUMA mRNA [1]; [9]", "result": "induced"},
      {"measurement": "PUMA response", "setting": "PUMA mRNA [1]", "result": "strong PUMA response"}
    ]},
    {"smiles": "COc1cccc2c1C(=O)c1c(O)c3c(c(O)c1C2=O)C[C@@](O)(C(=O)CO)C[C@@H]3O[C@H]1C[C@H](N)[C@H](O)[C@H](C)O1", "note": "[Adriacin, doxorubicin]", "values": [
      {"measurement": "p21 mRNA induction", "setting": "p21 mRNA [2]; [6]", "result": "significant p21 mRNA induction"}
    ]},
    {"smiles": "CN(Cc1cnc2nc(N)nc(N)c2n1)c1ccc(C(=O)N[C@@H](CCC(=O)O)C(=O)O)cc1", "note": "[MTX, methotrexate]", "values": [
      {"measurement": "PUMA induction", "setting": "PUMA mRNA [1]; [5]", "result": "huge induction"},
      {"measurement": "PUMA response", "setting": "PUMA mRNA [1]", "result": "strong PUMA response"}
    ]},
    {"smiles": "CC(=O)O[C@H]1C(=O)[C@@]2(C)[C@H]([C@H](OC(=O)c3ccccc3)[C@]3(O)C[C@H](OC(=O)[C@H](O)[C@@H](NC(=O)c4ccccc4)c4ccccc4)C(C)=C1C3(C)C)[C@]1(OC(C)=O)CO[C@@H]1C[C@@H]2O", "note": "[taxol]", "values": [
      {"measurement": "PUMA mRNA induction", "setting": "PUMA mRNA [3]", "result": "failed to induce"},
      {"measurement": "p21 mRNA induction", "setting": "p21 mRNA [4]", "result": "failed to induce"}
    ]},
    {"smiles": "COc1cccc2c1C(=O)c1c(O)c3c(c(O)c1C2=O)C[C@@](O)(C(=O)CO)C[C@@H]3O[C@H]1C[C@H](N)[C@H](O[C@@H]2CCCCO2)[C@H](C)O1", "note": "[THP, pirarubicin]", "values": [
      {"measurement": "BAX mRNA induction", "setting": "BAX mRNA; [7]", "result": "significant induction"},
      {"measurement": "PUMA induction", "setting": "PUMA mRNA [1]; [5]", "result": "huge induction"},
      {"measurement": "PUMA response", "setting": "PUMA mRNA [1]", "result": "strong PUMA response"},
      {"measurement": "p21 mRNA induction", "setting": "p21 mRNA [2]; [8]", "result": "significant induction"}
    ]},
    {"smiles": "Cc1c(N)nc([C@H](CC(N)=O)NC[C@H](N)C(N)=O)nc1C(=O)N[C@H](C(=O)N[C@H](C)[C@@H](O)[C@H](C)C(=O)N[C@H](C(=O)NCCc1nc(-c2nc(C(=O)NCCCN[C@@H](C)c3ccccc3)cs2)cs1)[C@@H](C)O)[C@@H](O[C@@H]1O[C@@H](CO)[C@@H](O)[C@H](O)[C@@H]1O[C@H]1O[C@H](CO)[C@@H](O)[C@H](OC(N)=O)[C@@H]1O)c1c[nH]cn1", "note": "[PEP, peplomycin]", "values": [
      {"measurement": "PUMA induction", "setting": "PUMA mRNA [1]; [5]", "result": "huge induction"}
    ]},
    {"smiles": "[NH2][Pt]([NH2])([Cl])[Cl]", "note": "[CDDP, cisplatin]", "values": [
      {"measurement": "PUMA induction", "setting": "PUMA mRNA [1]; [5]", "result": "huge induction"}
    ]},
    {"smiles": "CC[C@]1(O)C[C@@H]2CN(CCc3c([nH]c4ccccc34)[C@@](C(=O)OC)(c3cc4c(cc3OC)N(C)[C@H]3[C@@](O)(C(=O)OC)[C@H](OC(C)=O)[C@]5(CC)C=CCN6CC[C@]43[C@@H]65)C2)C1", "note": "[VLB, vinblastine]", "values": [
      {"measurement": "p21 induction", "setting": "p21 mRNA [2]; AML patient, 2 hours at 37° C., drug concentrations of b94 (FIG. 8B)", "result": "significant p21 induction"}
    ]},
    {"smiles": "COc1cccc2c1C(=O)c1c(O)c3c(c(O)c1C2=O)C[C@@](O)(C(C)=O)C[C@@H]3O[C@H]1C[C@H](N)[C@H](O)[C@H](C)O1", "note": "[DNR, daunorubicin]", "values": [
      {"measurement": "PUMA induction", "setting": "PUMA mRNA [1]; [9]", "result": "induced"}
    ]}
  ]
}
